Values of other authors, collected in paper PMC7692329, “Inhibitory Effect of AB-PINACA, Indazole Carboxamide Synthetic Cannabinoid, on Human Major Drug-Metabolizing Enzymes and Transporters” (Pharmaceutics, 2020).
Read-outs that look alike come from different tables or passages of the source.

Tests used:
CES1 = system: CES1; parameters: method as in PMID 25346527; conditions: 100 μM benzil, human liver microsomes; cited from earlier work
CYP3A4 = conditions: cited from earlier work
CYP2C9 = conditions: cited from earlier work
CYP2C19 = conditions: cited from earlier work
CYP2D6 = conditions: read-out: Ki, CYP2D6; cited from earlier work
CYP2C8 = conditions: cited from earlier work
CYP2B6 = conditions: read-out: Ki, CYP2B6; cited from earlier work
UGT2B7 = system: UGT2B7; parameters: method as in PMID 28287454; conditions: cited from earlier work
UGT1A3 = conditions: cited from earlier work
[1] = system: OCT1/2, OAT1/3, and OATP1B1/1B3; parameters: method as in PMID 31430908; conditions: cited from earlier work
UGT1A9 = conditions: read-out: Ki, UGT1A9; noncompetitive inhibition; cited from earlier work
[2] = child, chewing an AB-PINACA contaminated cigarette; cited from earlier work
[3] = read-out: Ki, CYP3A4 (time-dependent), time-dependent inhibition

For O=C(C(=O)c1ccccc1)c1ccccc1 [benzil], the “effect on formation of AB-PINACA carboxylic acid” value (CES1) is given as “abolished”.
In the case of CC(C)C(NC(=O)c1nn(Cc2ccc(F)cc2)c2ccccc12)C(N)=O (stereo not shown) [AB-FUBINACA, N-(1-amino-3-methyl-1-oxobutan-2-yl)-1-(4-fluorobenzyl)-1H-indazole-3-carboxamide], the “inhibition of CYP3A4” value (CYP3A4) is listed as “did not inhibited”, the Ki (CYP2C9; read-out: Ki, CYP2C9) is listed as 13.1 µM and the Ki (CYP2C19; read-out: Ki, CYP2C19) is listed as 6.3 µM. The Ki (CYP2D6) was 20.8 µM, the Ki (CYP2C8; read-out: Ki, CYP2C8) was 19.9 µM and the Ki (CYP2B6) was 15 µM.
In the case of O=C(c1cccc2ccccc12)c1cn(CCCCCF)c2ccccc12 [AM-2201], the IC50 (UGT2B7) is given as 10 µM, the IC50 (UGT1A3) is given as 4.3 µM and the IC50 (CYP3A4; read-out: IC50, CYP3A4) is given as 4 µM. For the same compound, the IC50 (CYP2C9; read-out: IC50, CYP2C9) was 3.9 µM.
For CCc1ccc(C(=O)c2cn(CCCCCF)c3ccccc23)c2ccccc12 [EAM-2201], the Ki (UGT1A3; competitive inhibition) is listed as 2.4 µM, the Ki (CYP3A4; [3]) is listed as 4.1 µM and the “kinact, CYP3A4” value (CYP3A4; time-dependent inhibition) is listed as 0.0250 min⁻¹. For the same compound, the “kinact/Ki, CYP3A4” value (CYP3A4; time-dependent inhibition) was 115 M⁻¹ s⁻¹, the Ki (CYP2C9; read-out: Ki, CYP2C9 (time-dependent), time-dependent inhibition) was 3 µM and the “kinact, CYP2C9” value (CYP2C9; time-dependent inhibition) was 0.0462 min⁻¹. For the same compound, the Ki (CYP2C19; read-out: Ki, CYP2C19 (time-dependent), time-dependent inhibition) was 3.8 µM, the “kinact, CYP2C19” value (CYP2C19; time-dependent inhibition) was 0.0264 min⁻¹ and the Ki (CYP2C8; read-out: Ki, CYP2C8 (time-dependent), time-dependent inhibition) was 0.54 µM. The “kinact, CYP2C8” value (CYP2C8; time-dependent inhibition) was 0.0633 min⁻¹.
For CCCCCn1nc(C(=O)NC23CC4CC(CC(C4)C2)C3)c2ccccc21 [APINACA, N-(1-adamantyl)-1-pentyl-1H-indazole-3-carboxamide], the Ki (CYP3A4; [3]) is listed as 4.5 µM, the “kinact, CYP3A4” value (CYP3A4; time-dependent inhibition) is listed as 0.04686 min⁻¹ and the “kinact/Ki, CYP3A4” value (CYP3A4; time-dependent inhibition) is listed as 172 M⁻¹ s⁻¹. For the same compound, the “inhibition of transport activity of OCT1/2, OAT1/3, and OATP1B1/1B3” value [1] was “did not inhibit” and the Ki (UGT1A9) was 5.9 µM.
For CC(C)C(NC(=O)c1nn(CCCCC(=O)O)c2ccccc12)C(N)=O (stereo not shown) [AB-PINACA pentanoic acid], the serum level [2] is given as 345 ng/mL.
For Cc1ccc(C(=O)c2cn(CCCCCF)c3ccccc23)c2ccccc12 [MAM-2201], the Ki (UGT1A3) is listed as 5 µM, the Ki (CYP3A4; read-out: Ki, CYP3A4) is listed as 5.4 µM and the Ki (CYP2C9; read-out: Ki, CYP2C9) is listed as 5.6 µM.
For CC[C@H]1OC(=O)[C@H](C)[C@@H](O[C@H]2C[C@@](C)(OC)[C@@H](O)[C@H](C)O2)[C@H](C)[C@@H](O[C@@H]2O[C@H](C)C[C@H](N(C)C)[C@H]2O)[C@](C)(OC)C[C@@H](C)C(=O)[C@H](C)[C@@H](O)[C@]1(C)O [clarithromycin], the “inactivation efficiency (kinact/Ki), CYP3A4” value (CYP3A4; representative clinical CYP3A4-mediated drug interactions) is given as 46.7 M⁻¹ s⁻¹.
